From patent US6545053B1, “Tricyclic compounds and drug compositions containing same” (Asahi Kasei Kogyo Kabushiki Kaisha, priority 1996, dated 2003) come the findings set out here.

SMILES strings stand for the structures. Structures can show the parent of a compound that is named as a salt. Where two headings read alike, the source gives them in different places.

The experiment has as its target T1, human β3 (Homo sapiens, UniProt P13945).
T1 construct: And then full length of human β3 gene was cloned using this fragment as a probe; expressed in transfected cells; host or cells: CHO cells (Chinese hamster ovary), pcDNA3 vector
In words: Human β3-agonist activity (cAMP in CHO cells transfected with human β3 gene). It counts as cell-based. To be noted: for Emax: CHO, read-out: Intrinsic activity (%). The protocol: Human β3-agonist Activity
Human β3-agonist activity was examined using CHO cells (chinese hamster ovarian cells) to which pcDNA3 (in vitrogen) cells inserted human β3 gene was transfected. Human β3 fragment was obtained by PCR using human fat tissue cDNA (supplied from Clontech) with a β3 primer [Krief et al, J. Clin. Invest.
The cells were cultured in a HAM F-12 medium containing 10% of fetal bovine serum, 400 μg/ml of Geneticin (Gibco BRL). 100 U/ml penicillin and 100 μg/ml streptomycin. 5×10^5 cells were placed on a 6-well plate and cultured for 24 hours, after which the medium was changed to a HAM F-12 medium without serum and was kept for 2 hours. Each test compound was first dissolved in DMSO, and then diluted with a HAM F-12 medium containing 1 mM isobutylmethyl xanthine and 1 mM ascorbic acid. A 10-fold dilution in the range of 10^−5 to 10^−12 M was added into the cell.
After culturing for 30 minutes, culture medium was withdrawn, 0.5 ml of 1 N NaOH was added and was kept for 20 minutes. And then 0.5 ml of 1 N acetic acid was added with subsequent agitation and centrifugation. Finally the concentration of cAMP were analyzed using cAMP EIA KIT (Cayman). […] Isoprotelenol was purchased from Research Biochimicals International.

Setting [1] is: cAMP, CHO cells with human β3, read-out: ED50 (the source's name).

T1 sequence (P13945 whole entry, the tested form may be a part): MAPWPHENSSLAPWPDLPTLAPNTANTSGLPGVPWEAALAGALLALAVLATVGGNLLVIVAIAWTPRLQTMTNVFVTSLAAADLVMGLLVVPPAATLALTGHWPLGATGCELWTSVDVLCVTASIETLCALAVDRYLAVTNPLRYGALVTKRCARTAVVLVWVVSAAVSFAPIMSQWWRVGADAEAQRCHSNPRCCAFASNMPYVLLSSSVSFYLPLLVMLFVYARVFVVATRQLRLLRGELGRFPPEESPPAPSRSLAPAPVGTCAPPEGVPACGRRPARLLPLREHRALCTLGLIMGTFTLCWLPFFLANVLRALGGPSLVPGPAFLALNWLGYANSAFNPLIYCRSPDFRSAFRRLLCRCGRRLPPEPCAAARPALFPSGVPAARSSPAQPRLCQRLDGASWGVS

Turning to `CS(=O)(=O)Nc1cc(C(O)CNCCOc2ccc3c(c2)[nH]c2ccccc23)ccc1OCc1ccccc1` (racemic) [Example 1, (±)-N-[5-[2-[2-(9H-Carbazol-2-yloxy)ethylamino]-1-hydroxyethyl]-2-benzyloxyphenyl]methanesulfonamide Hydrochloride], the EC50 was 340 nM and the Emax amounted to 80%.
For the molecule `CS(=O)(=O)Nc1cc(C(O)CNCCOc2ccc3c(c2)[nH]c2ccccc23)ccc1F` (racemic) [Example 5, (±)-N-[5-[2-[2-(9H-Carbazol-2-yloxy)ethylamino]-1-hydroxyethyl]-2-fluorophenyl]methanesulfonamide Hydrochloride], the EC50 is 66 nM and the Emax was 114%.
As to `CS(=O)(=O)Nc1cc(C(O)CNCCOc2ccc3c(c2)[nH]c2ccccc23)ccc1Cl` (racemic) [Example 6, (±)-N-[5-[2-[2-(9H-Carbazol-2-yloxy)ethylamino]-1-hydroxyethyl]-2-chlorophenyl]methanesulfonamide Hydrochloride], the EC50 worked out at 33 nM and the Emax worked out at 119%.
The matching figures for `O=S(=O)(Cc1ccccc1)Nc1cccc(C(O)CNCCOc2ccc3c(c2)[nH]c2ccccc23)c1` (racemic) [Example 8, (±)-N-[3-[2-[2-(9H-Carbazol-2-yloxy)ethylamino]-1-hydroxyethyl]phenyl]phenylmethanesulfonamide Hydrochloride]: 720 nM and 47%.
Consider `CC(=O)Nc1ccc2c(c1)Cc1cc(OCCNCC(O)c3cccc(NS(C)(=O)=O)c3)ccc1-2` (racemic) [Example 10, (±)-N-[3-[2-[2-(9H-7-Acetylaminofluoren-2-yloxy)ethylamino]-1-hydroxyethyl]phenyl]methanesulfonamide Hydrochloride], for which the Emax was found to be 47%. Besides, the EC50 under setting [1] came out at 150 nM.
Take `CC(COc1ccc2c(c1)[nH]c1ccccc12)NCC(O)c1cccc(NS(C)(=O)=O)c1` (racemic) [Example 11, (±)-N-[3-[2-[[1-(9H-Carbazol-2-yloxy)propan-2R-yl]amino]-1-hydroxyethyl]phenyl]methanesulfonamide Hydrochloride]: the Emax is 95%. The EC50 under setting [1] came out at 26 nM.
As for `CNS(=O)(=O)c1cccc(C(O)CNCCOc2ccc3c(c2)[nH]c2ccccc23)c1` (racemic) [Example 16, (±)-N-methyl-3-[2-[2-(9H-Carbazol-2-yloxy)ethylamino]-1-hydroxyethyl]benzenesulfonamide Hydrochloride], the EC50 was 30 nM and the Emax stood at 99%.
Turning to `O=CNc1cccc(C(O)CNCCOc2ccc3c(c2)[nH]c2ccccc23)c1` (racemic) [Example 17, (±)-N-[3-[2-[2-(9H-Carbazol-2-yloxy)ethylamino]-1-hydroxyethyl]phenyl]formamide Hydrochloride], the EC50 stood at 910 nM and the Emax came to 53%.
As for `O=[N+]([O-])c1cc(C(O)CNCCOc2ccc3c(c2)[nH]c2ccccc23)ccc1O` (racemic) [Example 18, (±)-2-[N-[2-(9H-Carbazol-2-yloxy)ethyl]amino]-1-(4-hydroxy-3-nitrophenyl)]ethanol Hydrochloride], the Emax turned out to be 90%. The EC50 under setting [1] is 32 nM.
In the case of `OC(CNCCOc1ccc2c(c1)[nH]c1ccccc12)c1ccccc1F` (racemic) [Example 28, (±)-2-[N-[2-(9H-Carbazol-2-yloxy)ethyl]amino]-1-(2-fluorophenyl)ethanol Hydrochloride], the EC50 is 1000 nM and the Emax is 97%.
Consider `Oc1ccc(C(O)CNCCOc2ccc3c(c2)[nH]c2ccccc23)cc1` (racemic) [Example 29, (±)-2-[N-[2-(9H-Carbazol-2-yloxy)ethyl]amino]-1-(4-hydroxyphenyl)ethanol Hydrochloride], for which the EC50 was found to be 250 nM and the Emax amounted to 120%.
Regarding `OC(CNCCOc1ccc2oc3ccccc3c2c1)c1ccccc1` (racemic) [Example 34, (±)-2-[N-[2-(Dibenzofuran-2-yloxy)ethyl]amino]-1-phenyl ethanol Hydrochloride], the EC50 amounted to 4600 nM and the Emax was 37%.
Consider `CC(=O)Nc1ccc2c(c1)Cc1cc(OCCNCC(O)c3ccc(O)c(NS(=O)(=O)N(C)C)c3)ccc1-2` (racemic) [Example 45, (±)-N′-[5-[2-[2-(9H-7-Acetylaminofluoren-2-yloxy)ethylamino]-1-hydroxyethyl]-2-hydroxyphenyl]-N,N-dimethylsulfamide Hydrochloride], for which the Emax turned out to be 89%. Besides, the EC50 under setting [1] was found to be 17 nM.
As for `Nc1cccc(C(O)CNCCOc2ccc3c(c2)[nH]c2ccccc23)c1` (racemic) [Example 47, (±)2-[N-[2-(9H-Carbazol-2-yloxy)ethyl]amino]-1-(3-aminophenyl)]ethanol Hydrochloride], the Emax worked out at 86%. Moreover, under setting [1], the EC50 was determined as 2000 nM.
On to `CN(C)S(=O)(=O)Nc1cccc(C(O)CNCCOc2ccc3c(c2)[nH]c2ccccc23)c1` (racemic) [Example 48, (±)-N′-[3-[2-[2-(9H-Carbazol-2-yloxy)ethylamino]-1-hydroxyethyl]phenyl]-N,N-dimethylsulfamide Hydrochloride], for which the EC50 was 220 nM and the Emax worked out at 73%.
For `CS(=O)(=O)Nc1cc(C(O)CNCCOc2ccc3c(c2)oc2ccccc23)ccc1F` (racemic) [Example 55, (±)-N-[5-[2-[2-(Dibenzofuran-3-yloxy)ethylamino]-1-hydroxyethyl]2-fluorophenyl]methanesulfonamide Hydrochloride], the EC50 stood at 230 nM and the Emax came to 76%.
Consider `CS(=O)(=O)Nc1cc(C(O)CNCCOc2ccc3c(c2)sc2ccccc23)ccc1F` (racemic) [Example 56, (±)-N-[5-[2-[2-(Dibenzothiophen-3-yloxy)ethylamino]-1-hydroxyethyl]-2-fluorophenyl]methanesulfonamide Hydrochloride], for which the EC50 stood at 630 nM and the Emax stood at 97%.
With `CS(=O)(=O)Nc1cc(C(O)CNCCOc2ccc3c(c2)oc2ccccc23)ccc1Cl` (racemic) [Example 57, (±)-N-[5-[2-[2-(Dibenzofuran-3-yloxy)ethylamino]-1-hydroxyethyl]-2-chlorophenyl]methanesulfonamide Hydrochloride], the EC50 was determined as 230 nM and the Emax was found to be 68%.
In the case of `CS(=O)(=O)Nc1cc(C(O)CNCCOc2ccc3c(c2)sc2ccccc23)ccc1Cl` (racemic) [Example 58, (±)-N-[5-[2-[2-(Dibenzothiophen-3-yloxy)ethylamino]-1-hydroxyethyl]-2-chlorophenyl]methanesulfonamide Hydrochloride], the EC50 came out at 550 nM and the Emax was 91%.
As to `CS(=O)(=O)Nc1cc(O)cc(C(O)CNCCOc2ccc3c(c2)[nH]c2ccccc23)c1` (racemic) [Example 62, (±)-N-[5-[2-[2-(9H-Carbazol-2-yloxy)ethylamino]-1-hydroxyethyl]-3-hydroxyphenyl]methanesulfonamide Hydrochloride], the EC50 was found to be 210 nM and the Emax was found to be 106%.
On to `CNS(=O)(=O)c1cc(C(O)CNCCOc2ccc3c(c2)[nH]c2ccccc23)ccc1O` (racemic) [Example 66, (±)-N-methyl-[5-[2-[2-(9H-Carbazol-2-yloxy)ethylamino]-1-hydroxyethyl]-2-hydroxy]benzenesulfonamide Hydrochloride], for which the Emax is 106%. Also, the EC50 under setting [1] came to 72 nM.
Consider `CC(=O)Nc1ccc2[nH]c3cc(OCCNCC(O)c4cccc(NS(C)(=O)=O)c4)ccc3c2c1.Cl` (racemic) [Example 68, (±)-N-[3-[2-[2-(9H-6-(Acetylamino)carbazol-2-yloxy]ethylamino]-1-hydroxyethyl]phenyl]methanesulfonamide Hydrochloride], for which the EC50 under setting [1] came to 38 nM. Further, the “Intrinsic activity (%)” value (relative activity for isoproterenol, cAMP, CHO cells with human β3) is 92%.
`CS(=O)(=O)Nc1cc(C(O)CNCCOc2ccc3c(c2)[nH]c2ccccc23)ccc1N` (racemic) [Example 82, (±)-N-[5-[2-[2-(9H-Carbazol-2-yloxy)ethylamino]-1-hydroxyethyl]-2-aminophenyl]methanesulfonamide Hydrochloride]: the EC50 is 2800 nM and the Emax was 130%.
Take `CN(Cc1ccccc1)S(=O)(=O)c1cc(C(O)CNCCOc2ccc3c(c2)[nH]c2ccccc23)ccc1O` (racemic) [Example 83, (±)-N-Methyl-N-benzyl-[5-[2-[2-(9H-carbazol-2-yloxy)ethylamino]-1-hydroxyethyl]-2-hydroxy]benzenesulfonamide Hydrochloride]: the Emax is 79%. The EC50 under setting [1] stood at 740 nM.
The corresponding values for `CS(=O)(=O)Nc1cc(C(O)CNCCOc2ccc3c(c2)[nH]c2ccccc23)ccc1CO` (racemic) [Example 84, (±)-N-[5-[2-[2-(9H-Carbazol-2-yloxy)ethylamino]-1-hydroxyethyl]-2-(hydroxymethyl)phenyl]methanesulfonamide] are 71% and 58 nM.
`CS(=O)(=O)Nc1cc(C(O)CNCCOc2ccc3c(c2)[nH]c2ccccc23)ccc1Br` (racemic) [Example 85, (±)-N-[5-[2-[2-(9H-Carbazol-2-yloxy)ethylamino]-1-hydroxyethyl]-2-bromophenyl]methanesulfonamide]: the Emax came out at 70%. The EC50 under setting [1] was found to be 56 nM.
